# Experimental data from patent US7888332B2, “Hydrazide-containing CFTR inhibitor compounds and uses thereof” (The Regents of the University of California, priority 2004, dated 2011).
# Like-named read-outs stand apart in the source and are kept apart here.
# Experiments:
# [1] = molecular target: T1, CFTR (cAMP-stimulated short-circuit current) in mouse ileum (Mus musculus, UniProt P26361); experiment: Short-circuit current in intact mouse ileum
# T1 construct: from tissue; host or cells: isolated mouse ileal segments in a micro-Ussing chamber
# T1 sequence (P26361 whole entry): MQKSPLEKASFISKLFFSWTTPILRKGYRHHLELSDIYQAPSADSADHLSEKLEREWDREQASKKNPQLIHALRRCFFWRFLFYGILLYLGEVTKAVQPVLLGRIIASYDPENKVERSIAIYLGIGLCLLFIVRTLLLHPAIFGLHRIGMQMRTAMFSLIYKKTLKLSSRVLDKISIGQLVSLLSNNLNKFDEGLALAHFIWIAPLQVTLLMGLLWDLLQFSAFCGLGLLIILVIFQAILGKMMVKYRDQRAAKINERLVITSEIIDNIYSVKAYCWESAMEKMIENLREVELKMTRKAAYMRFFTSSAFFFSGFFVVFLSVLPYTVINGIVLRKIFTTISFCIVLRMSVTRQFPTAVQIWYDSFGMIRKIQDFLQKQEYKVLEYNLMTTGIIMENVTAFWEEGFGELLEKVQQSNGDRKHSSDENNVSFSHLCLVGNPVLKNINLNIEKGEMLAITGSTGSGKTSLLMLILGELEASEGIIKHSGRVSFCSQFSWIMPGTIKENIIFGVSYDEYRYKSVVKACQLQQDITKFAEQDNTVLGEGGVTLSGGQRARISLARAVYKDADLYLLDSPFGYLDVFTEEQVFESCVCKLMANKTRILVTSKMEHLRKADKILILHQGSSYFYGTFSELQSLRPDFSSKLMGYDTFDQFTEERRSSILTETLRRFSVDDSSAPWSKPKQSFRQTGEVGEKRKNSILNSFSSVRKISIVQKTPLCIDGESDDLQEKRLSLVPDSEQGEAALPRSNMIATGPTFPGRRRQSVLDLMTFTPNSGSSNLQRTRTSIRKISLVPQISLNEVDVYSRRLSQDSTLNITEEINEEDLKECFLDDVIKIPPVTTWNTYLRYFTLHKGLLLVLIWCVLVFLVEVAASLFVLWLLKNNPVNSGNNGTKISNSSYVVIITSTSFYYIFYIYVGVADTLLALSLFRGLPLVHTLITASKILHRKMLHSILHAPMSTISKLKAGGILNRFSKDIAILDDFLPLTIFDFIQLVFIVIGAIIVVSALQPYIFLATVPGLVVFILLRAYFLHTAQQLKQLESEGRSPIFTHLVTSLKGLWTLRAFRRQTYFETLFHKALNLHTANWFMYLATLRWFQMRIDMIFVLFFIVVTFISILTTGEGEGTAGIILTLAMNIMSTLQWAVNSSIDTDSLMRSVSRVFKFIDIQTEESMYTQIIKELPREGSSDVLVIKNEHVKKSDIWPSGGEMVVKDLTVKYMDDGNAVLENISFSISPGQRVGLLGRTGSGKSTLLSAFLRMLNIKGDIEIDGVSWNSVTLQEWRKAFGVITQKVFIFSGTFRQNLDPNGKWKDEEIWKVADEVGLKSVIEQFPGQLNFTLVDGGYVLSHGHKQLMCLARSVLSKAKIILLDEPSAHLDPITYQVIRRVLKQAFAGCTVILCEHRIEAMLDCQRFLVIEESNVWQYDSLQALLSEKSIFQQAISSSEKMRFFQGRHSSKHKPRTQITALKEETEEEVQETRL
# Description: The efficacy of GlyH-101 in inhibiting cAMP/cholera toxin-induced intestinal fluid secretion was also evaluated. Short-circuit current experiments were done in different cell types and in intact mouse ileum under non-permeabilized conditions and in the absence of a Cl^− gradient. In each case CFTR was activated by CPT-cAMP after ENaC inhibition by amiloride. […] Inhibition was ˜100% at higher GlyH-101 concentrations. Cholera toxin-induced intestinal fluid secretion was measured in an in vivo closed-loop model in which loops for each mouse were injected with saline (control), cholera toxin (1 μg), or cholera toxin (1 μg)+GlyH-101 (0.25 μg). GlyH-101 was added to the lumen (rather than systemically) based on initial studies showing poor intestinal absorption and little effect of systemically administered compound. Compared to the saline control, the cholera toxin-induced increase in fluid secretion over 4 hours, quantified from loop weight-to-length ratio, was 80% reduced by GlyH-101.
# [2] = molecular target: upper airway CFTR Cl− conductance (Mus musculus, UniProt P26361); experiment: Nasal potential difference measurements in mice
# Sequence of upper airway CFTR Cl− conductance (P26361 whole entry): as above
# CFTR [3] = molecular target: T2, CFTR (Homo sapiens, UniProt P13569); experiment: Whole-cell patch-clamp on FRT cells expressing CFTR; format: cell-based; set-up: expressed in transfected cells; host or cells: Fisher Rat Thyroid (FRT) cells, stably transfected; conditions: for Ki: 5 μM forskolin, read-out: apparent Ki
# T2 sequence (P13569 whole entry): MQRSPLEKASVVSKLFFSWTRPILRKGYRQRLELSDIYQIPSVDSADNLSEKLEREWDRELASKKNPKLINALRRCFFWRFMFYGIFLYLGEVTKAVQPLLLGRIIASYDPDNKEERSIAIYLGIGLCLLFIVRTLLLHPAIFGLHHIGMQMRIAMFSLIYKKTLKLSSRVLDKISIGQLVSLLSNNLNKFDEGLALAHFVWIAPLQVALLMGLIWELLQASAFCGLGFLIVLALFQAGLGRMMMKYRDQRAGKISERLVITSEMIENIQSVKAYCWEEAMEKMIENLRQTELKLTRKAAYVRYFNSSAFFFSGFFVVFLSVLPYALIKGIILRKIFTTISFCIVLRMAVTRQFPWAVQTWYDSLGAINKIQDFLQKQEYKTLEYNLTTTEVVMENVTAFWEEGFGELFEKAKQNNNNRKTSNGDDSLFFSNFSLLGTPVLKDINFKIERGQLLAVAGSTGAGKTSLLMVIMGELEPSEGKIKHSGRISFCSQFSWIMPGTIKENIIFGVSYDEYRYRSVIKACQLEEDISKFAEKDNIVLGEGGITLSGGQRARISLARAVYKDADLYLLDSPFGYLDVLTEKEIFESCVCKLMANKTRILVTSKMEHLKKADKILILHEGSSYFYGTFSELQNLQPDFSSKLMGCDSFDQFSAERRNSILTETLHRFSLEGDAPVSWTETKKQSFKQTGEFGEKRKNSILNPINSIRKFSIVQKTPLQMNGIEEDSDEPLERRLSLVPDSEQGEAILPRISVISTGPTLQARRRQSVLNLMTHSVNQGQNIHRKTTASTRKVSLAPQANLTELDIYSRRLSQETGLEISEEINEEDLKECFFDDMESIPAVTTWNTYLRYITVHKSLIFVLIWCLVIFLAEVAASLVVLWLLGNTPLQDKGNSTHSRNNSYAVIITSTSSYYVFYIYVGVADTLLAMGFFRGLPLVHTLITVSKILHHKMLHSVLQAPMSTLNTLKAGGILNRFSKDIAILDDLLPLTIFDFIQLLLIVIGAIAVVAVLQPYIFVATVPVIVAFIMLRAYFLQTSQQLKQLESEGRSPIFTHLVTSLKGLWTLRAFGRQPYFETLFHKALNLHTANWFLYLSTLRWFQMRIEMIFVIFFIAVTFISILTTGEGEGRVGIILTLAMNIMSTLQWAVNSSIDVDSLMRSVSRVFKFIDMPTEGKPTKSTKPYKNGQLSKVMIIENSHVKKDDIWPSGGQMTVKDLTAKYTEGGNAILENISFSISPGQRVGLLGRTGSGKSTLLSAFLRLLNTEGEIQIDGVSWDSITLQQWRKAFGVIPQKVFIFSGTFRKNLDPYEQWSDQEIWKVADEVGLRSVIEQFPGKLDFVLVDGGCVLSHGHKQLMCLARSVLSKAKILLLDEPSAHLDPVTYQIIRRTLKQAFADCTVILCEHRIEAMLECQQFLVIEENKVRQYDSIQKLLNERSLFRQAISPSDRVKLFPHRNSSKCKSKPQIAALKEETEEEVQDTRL
# Description: (§1) Patch-clamp experiments were carried out at room temperature on FRT cells stably expressing wildtype CFTR. Cell-attached and whole-cell configurations were used (Hamill et al., Pflugers Arch. 391:85-100, 1981). The cell membrane was clamped at specified voltages using an EPC-7 patch-clamp amplifier (List Medical). Data were filtered at 500 Hz and digitized at 2000 Hz. For whole-cell experiments the pipette solution contained (in mM): 120 CsCl, 10 TEA-Cl, 0.5 EGTA, 1 MgCl2, 40 mannitol, 10 Cs-HEPES and 3 mM MgATP (pH 7.3). For cell attached experiments EGTA was replaced with 1 mM CaCl2. The bath solution for whole-cell experiments contained (in mM): 150 NaCl, 1 CaCl2, 1 MgCl2, 10 glucose, 10 mannitol, 10 Na-TES (pH 7.4). In cell-attached experiments the bath solution contained (in mM): 130 KCl, 2 NaCl, 2 CaCl2, 2 MgCl2, 10 glucose, 20 mannitol, and 10 K-Hepes (pH 7.3). Inhibitors were applied by extracellular perfusion. CFTR channel activity in cell-attached patches was analyzed as described previously (Taddei et al., FEBS Lett. 558:52-56, 2004).
# The mechanism of CFTR block by GlyH-101 was studied using the whole-cell configuration of the patch-clamp technique. After maximal activation of CFTR in stably transfected FRT cells by 5 μM forskolin, current-voltage relationships were measured at GlyH-101 concentrations from 0 to 50 μM. […] Extracellular perfusion with 10 μM GlyH-101 produced an immediate reduction in current that was strongly dependent on membrane potential (FIG. 4A, right panel). At more positive membrane potentials outward positive currents (Cl^− movement into the cell) were reduced compared to inward currents. […] Data for the thiazolidinone 3-[(3-trifluoromethyl)phenyl]-5-[(4-carboxyphenyl)methylene]-2-thioxo-4-thiazolidinone (referred to herein as CFTRinh-172) (5 μM) is shown for comparison. […] FIG. 4C summarizes percentage CFTR current block as a function of GlyH-101 concentration at different membrane voltages.
# CFTR [4] = molecular target: T2, CFTR; experiment: Cell-attached patch-clamp, CFTR single channel activity in FRT cells; format: cell-based; set-up: expressed in transfected cells; host or cells: Fisher Rat Thyroid (FRT) cells, stably transfected; conditions: for Mean channel open time: +60 mV
# Description: as §1
# Cell-attached patch-clamp experiments were carried out to investigate the mechanism of GlyH-101 block of CFTR Cl^− current at the single-channel level. […] In the absence of the inhibitor, mean channel open time was 264±11 ms (SE, n=10). Mean channel open times at +60 mV at 0.4, 1, and 5 μM GlyH-101 were reduced to 181±29, 38±5, and 13±2 ms, respectively (n=5; p<0.01 for all concentrations vs. control).
smiles,measurement,setting,value
"O=C(CNc1ccc2ccccc2c1)NN=Cc1cc(Br)c(O)c(Br)c1O [GlyH-101, N-2-napthalenyl-[(3,5-dibromo-2,4-dihydroxyphenyl)methylene]glycine hydrazide]",Inhibition at higher concentrations,[1],~100%
same,Ki,"[1]; CPT-cAMP after amiloride, read-out: Ki for inhibition of cAMP-stimulated short-circuit current",~5 µM
same,water solubility compared to CFTRinh-172,Water solubility,50 fold
same,water solubility,"Water solubility; in water, 22° C., pH 6-8",800 to 1300 µM
same,"PD change (ΔPD), paired analysis",[2]; after ˜4 mV hyperpolarization by forskolin,depolarization of similar magnitude
same,inhibition of forskolin-induced hyperpolarization,[2]; compound in all solutions (10 μM),substantial inhibition
same,effect on forskolin-induced hyperpolarization of nasal PD,"[2]; topical in perfusate, 10 μM",rapidly reversed
same,increase of apparent Ki as applied potential varied from +60 to −60 mV,CFTR [3],approximately four-fold
same,Hill coefficient nH,CFTR [3]; +20 mV,0.7
same,Ki,CFTR [3]; +20 mV,3.8 µM
same,Hill coefficient nH,CFTR [3]; +60 mV,0.5
same,Ki,CFTR [3]; +60 mV,1.4 µM
same,current-voltage relationship,"CFTR [3]; GlyH-101 at submaximal concentrations, CFTRinh-172 5 μM",inward rectification
same,Hill coefficient nH,CFTR [3]; −20 mV,1.3
same,Ki,CFTR [3]; −20 mV,5 µM
same,Hill coefficient nH,CFTR [3]; −60 mV,1.8
same,Ki,CFTR [3]; −60 mV,5.6 µM
same,inhibition of CFTR Cl− conductance at high concentrations,"CFTR [3]; ≧30 μM, whole-cell patch-clamp and short-circuit current experiments",fully inhibited
same,change in single channel conductance,CFTR [4]; 0.4-5 μM,without a change
same,Mean channel open time,CFTR [4]; 0.4 μM GlyH-101,181 ± 29 ms
same,Mean channel open time,CFTR [4]; 1 μM GlyH-101,38 ± 5 ms
same,Mean channel open time,CFTR [4]; 5 μM GlyH-101,13 ± 2 ms
